Measurements as given in doi:10.1101/2025.10.21.683780 (bioRxiv, 2025).

Tests used:
[1] = target: T1, OATP1B3 (Homo sapiens, UniProt Q9NPD5); assay type: cell-based; conditions: hek293 cells
T1 construct: gene SLCO1B3
T1 sequence (Q9NPD5 1-702): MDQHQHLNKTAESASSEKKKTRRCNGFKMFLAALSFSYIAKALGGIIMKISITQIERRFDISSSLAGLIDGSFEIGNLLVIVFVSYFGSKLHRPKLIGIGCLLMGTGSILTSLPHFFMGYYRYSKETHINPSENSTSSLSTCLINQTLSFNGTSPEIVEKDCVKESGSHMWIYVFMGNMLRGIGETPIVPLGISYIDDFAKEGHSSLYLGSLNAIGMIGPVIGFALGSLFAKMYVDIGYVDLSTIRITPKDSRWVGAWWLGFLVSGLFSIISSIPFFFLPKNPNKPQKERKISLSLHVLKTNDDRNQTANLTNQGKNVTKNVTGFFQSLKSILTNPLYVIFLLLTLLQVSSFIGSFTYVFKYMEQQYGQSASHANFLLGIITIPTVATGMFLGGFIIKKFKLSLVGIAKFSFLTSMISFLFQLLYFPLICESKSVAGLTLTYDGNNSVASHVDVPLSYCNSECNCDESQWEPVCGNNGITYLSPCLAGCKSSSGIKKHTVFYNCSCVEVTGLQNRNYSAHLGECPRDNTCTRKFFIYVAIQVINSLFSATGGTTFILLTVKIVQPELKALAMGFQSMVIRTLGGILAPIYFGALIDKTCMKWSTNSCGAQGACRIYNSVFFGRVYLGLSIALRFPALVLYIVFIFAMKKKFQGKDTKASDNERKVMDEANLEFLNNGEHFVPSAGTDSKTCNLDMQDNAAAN

[2] = target: T2, OAT4 (Homo sapiens, UniProt Q9NSA0); test: inhibition of methotrexate uptake in OAT4-expressing HEK293 cells; also transported; assay type: cell-based; conditions: read-out: Dicloxacillin / IC50 (95% CI)
T2 construct: gene SLC22A11
T2 sequence (Q9NSA0 1-550): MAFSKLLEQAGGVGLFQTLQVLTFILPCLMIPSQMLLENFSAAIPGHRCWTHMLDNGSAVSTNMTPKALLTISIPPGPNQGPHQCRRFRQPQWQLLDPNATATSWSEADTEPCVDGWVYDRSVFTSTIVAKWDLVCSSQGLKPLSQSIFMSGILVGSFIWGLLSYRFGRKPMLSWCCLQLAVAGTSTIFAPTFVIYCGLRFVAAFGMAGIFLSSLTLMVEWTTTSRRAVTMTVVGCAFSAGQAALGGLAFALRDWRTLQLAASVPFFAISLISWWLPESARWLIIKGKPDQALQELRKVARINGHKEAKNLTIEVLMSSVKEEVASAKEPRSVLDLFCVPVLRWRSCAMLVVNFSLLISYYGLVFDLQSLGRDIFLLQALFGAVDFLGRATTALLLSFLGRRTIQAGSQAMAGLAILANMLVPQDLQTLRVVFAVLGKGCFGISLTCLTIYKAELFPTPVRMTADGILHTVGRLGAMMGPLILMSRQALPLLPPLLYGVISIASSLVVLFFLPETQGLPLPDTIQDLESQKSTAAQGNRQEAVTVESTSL

IC50 [1]: 6.68 µM
IC50 [2]: 7.23 µM
Structure (SMILES): Cc1onc(-c2c(Cl)cccc2Cl)c1C(=O)N[C@@H]1C(=O)N2[C@@H]1SC(C)(C)[C@@H]2C(=O)O [dicloxacillin]
